Patent publication EP4810038A1, “METHOD FOR TREATING ALK-POSITIVE OR ROS1-POSITIVE NON-SMALL CELL LUNG CANCER” (Shenzhen TargetRx Co., Ltd., priority 2023, dated 2025)

System: ALK-positive or ROS1-positive advanced non-small cell lung cancer
Test: Phase I clinical trial, dose escalation and expansion phases: efficacy (RECIST 1.1)
Type: in vivo, human
Method: The anti-tumor efficacy is evaluated according to RECIST version 1.1. For patients initially evaluated as having a complete response (CR) or partial response (PR), efficacy should be confirmed at least 4 weeks later. In the patients with asymptomatic central nervous system (CNS) metastases, in addition to evaluating 5 extracranial target lesions, up to 5 intracranial target lesions will also be evaluated. The specific indicators are as follows:
"CR" is defined as the disappearance of all target lesions, and the diameters of the short axis of all the pathological lymph nodes (whether target or non-target lymph nodes) must be reduced to 10 mm or less.
"PR" is defined as a reduction of at least 30% in the total diameter of the target lesions, with the total diameter of the baseline as a reference value.
"PD" is defined as an increase of at least 20% in the total diameter of the target lesions, using the minimum total diameter in the study as a reference value (this value may include the total diameter of the baseline). In addition, the absolute value of the total diameter must increase by at least 5 mm (the appearance of one or more new lesions is also considered as progressive disease).
"SD" is defined as a state in which the reduction in target lesions is insufficient to achieve partial response and the increase is insufficient to achieve progressive disease.
"ORR" includes CR and PR, and is defined as the proportion of patients who achieve complete response or partial response.
"IC-ORR" includes CR or PR for confirmed intracranial lesions, and is defined as the proportion of the patients with complete response or partial response of intracranial lesions among the patients with intracranial lesions.
"DCR" is defined as the proportion of the patients who achieve response (PR+CR) and stable disease (SD) after a treatment.
"IC-DCR" is defined as the proportion of the patients who achieve intracranial response (PR+CR), intracranial stable disease (SD), and […] after a treatment among the patients with intracranial lesions.
"DOR" is defined as the time from the first assessment of CR or PR to progressive disease or death, and is only applicable to the patients who achieve response.
"IC-DOR" is defined as the time from the first assessment of intracranial CR or intracranial PR to progressive disease or death, and is only applicable to the patients whose intracranial lesions achieve response.
"TTR" is defined as the time from patient enrollment (first dose of investigational drug) to tumor response (CR/PR), based on the patients with objective response.
"IC-TTR" is defined as the time from patient enrollment (first dose of investigational drug) to intracranial tumor response (IC-CR/PR), based on the patients with intracranial objective response.
Approximately eight dose groups in total were set in the dose escalation phase, which were 5 (the starting dose), 10, 20, 40, 60, 80, 100, and 125 mg, respectively. Subjects in all the dose groups received a single dose on day 1 (D1), and the blood samples were collected for pharmacokinetic (PK) assay and tolerability observation. If no grade 2 or a higher-level adverse event related to the investigational drug occurred during the single-dose period (5 to 7 days) (if such events occurred, dose adjustments would be made based on the toxicity according to the protocol), the subject entered the multiple-dose period (i.e., treatment period) 5 to 7 days later (7 days after the first administration in the first dose group (i.e., starting the multiple-dose treatment on day 8), and the intervals for the subsequent dose groups were determined based on the obtained tolerability and PK data). […]

[2H]C([2H])([2H])n1nc2c(c1C#N)-c1cnc(N)c(c1)O[C@H](C)c1cc(F)ccc1C(=O)N(C)C2 [compound A, (10R)-7-amino-12-fluoro-2-(methyl-d3)-10,16-dimethyl-15-oxo-10,15,16,17-tetrahydro-2H-8,4-(metheno)pyrazolo[4,3-h][2,5,11]benzoxadiazacyclotetradecine-3-carbonitrile]
BOR CR (intracranial, 10mg (N=1)): 0 n (%)
BOR NE (intracranial, 10mg (N=1)): 0 n (%)
BOR PD (intracranial, 10mg (N=1)): 0 n (%)
BOR PR (intracranial, 10mg (N=1)): 1 (100) n (%)
BOR SD (intracranial, 10mg (N=1)): 0 n (%)
Confirmed IC-ORR (95% CI) (intracranial, 10mg (N=1)): 1 (100) (2.5, 100.0) n (%)
IC-DCR (95% CI) (intracranial, 10mg (N=1)): 1 (100) (2.5, 100.0) n (%)
Median IC-DOR (95% CI) (intracranial, 10mg (N=1)): 5.55 (-, -) months
Median IC-TTR (range) (intracranial, 10mg (N=1)): 1.35 (1.35, 1.35) months
BOR CR (intracranial, 20mg (N=1)): 0 n (%)
BOR NE (intracranial, 20mg (N=1)): 0 n (%)
BOR PD (intracranial, 20mg (N=1)): 0 n (%)
BOR PR (intracranial, 20mg (N=1)): 1 (100) n (%)
BOR SD (intracranial, 20mg (N=1)): 0 n (%)
Confirmed IC-ORR (95% CI) (intracranial, 20mg (N=1)): 1 (100) (2.5, 100.0) n (%)
IC-DCR (95% CI) (intracranial, 20mg (N=1)): 1 (100) (2.5, 100.0) n (%)
Median IC-TTR (range) (intracranial, 20mg (N=1)): 1.35 (1.35, 1.35) months
BOR CR (intracranial, 40mg (N=4)): 0 n (%)
BOR NE (intracranial, 40mg (N=4)): 1 (25.0) n (%)
BOR PD (intracranial, 40mg (N=4)): 0 n (%)
BOR PR (intracranial, 40mg (N=4)): 0 n (%)
BOR SD (intracranial, 40mg (N=4)): 3 (75.0) n (%)
Confirmed IC-ORR (95% CI) (intracranial, 40mg (N=4)): 0 (0.0, 60.2) n (%)
IC-DCR (95% CI) (intracranial, 40mg (N=4)): 3 (75.0) (19.4, 99.4) n (%)
BOR CR (intracranial, 60mg (N=2)): 0 n (%)
BOR NE (intracranial, 60mg (N=2)): 0 n (%)
BOR PD (intracranial, 60mg (N=2)): 0 n (%)
BOR PR (intracranial, 60mg (N=2)): 2 (100) n (%)
BOR SD (intracranial, 60mg (N=2)): 0 n (%)
Confirmed IC-ORR (95% CI) (intracranial, 60mg (N=2)): 2 (100) (15.8, 100.0) n (%)
IC-DCR (95% CI) (intracranial, 60mg (N=2)): 2 (100) (15.8, 100.0) n (%)
Median IC-DOR (95% CI) (intracranial, 60mg (N=2)): 17.97 (-, -) months
Median IC-TTR (range) (intracranial, 60mg (N=2)): 4.11 (1.35, 6.87) months
BOR CR (intracranial, 80mg (N=4)): 0 n (%)
BOR NE (intracranial, 80mg (N=4)): 1 (25.0) n (%)
BOR PD (intracranial, 80mg (N=4)): 0 n (%)
BOR PR (intracranial, 80mg (N=4)): 1 (25.0) n (%)
BOR SD (intracranial, 80mg (N=4)): 2 (50.0) n (%)
Confirmed IC-ORR (95% CI) (intracranial, 80mg (N=4)): 1 (25.0) (0.6, 80.6) n (%)
IC-DCR (95% CI) (intracranial, 80mg (N=4)): 3 (75.0) (19.4, 99.4) n (%)
Median IC-TTR (range) (intracranial, 80mg (N=4)): 1.51 (1.51, 1.51) months
BOR CR (intracranial, 100mg (N=2)): 0 n (%)
BOR NE (intracranial, 100mg (N=2)): 0 n (%)
BOR PD (intracranial, 100mg (N=2)): 0 n (%)
BOR PR (intracranial, 100mg (N=2)): 0 n (%)
BOR SD (intracranial, 100mg (N=2)): 2 (100) n (%)
Confirmed IC-ORR (95% CI) (intracranial, 100mg (N=2)): 0 (0.0, 84.2) n (%)
IC-DCR (95% CI) (intracranial, 100mg (N=2)): 2 (100) (15.8, 100.0) n (%)
BOR CR (intracranial, 125mg (N=1)): 0 n (%)
BOR NE (intracranial, 125mg (N=1)): 0 n (%)
BOR PD (intracranial, 125mg (N=1)): 0 n (%)
BOR PR (intracranial, 125mg (N=1)): 0 n (%)
BOR SD (intracranial, 125mg (N=1)): 1 (100) n (%)
Confirmed IC-ORR (95% CI) (intracranial, 125mg (N=1)): 0 (0.0, 97.5) n (%)
IC-DCR (95% CI) (intracranial, 125mg (N=1)): 1 (100) (2.5,100.0) n (%)
BOR CR (systemic, 5mg (N=1)): 0 n (%)
BOR NE (systemic, 5mg (N=1)): 0 n (%)
BOR PD (systemic, 5mg (N=1)): 0 n (%)
BOR PR (systemic, 5mg (N=1)): 0 n (%)
BOR SD (systemic, 5mg (N=1)): 1 (100) n (%)
Confirmed ORR (95% CI) (systemic, 5mg (N=1)): 0 (0.0, 97.5) n (%)
